In PubChem BioAssay AID1963845 (Molecular Pharmacology Branch, DTP, NCI, 2024):
Where “and” joins values, the source holds several entries; their conditions need not be identical. Equal entries are not always repeated.

Test system: 429239-143-T-J1-PDC complex spheroid viability
Test: Anticancer human tumor 429239-143-T-J1-PDC patient-derived small cell lung carcinoma cell line growth inhibition [POLQ]
Settings: for viability, T/C: stronger effect = lower value
Description: Multicellular complex tumor spheroid response to Polymerase (POL) inhibitors (novobiocin, ART-558, RP6685) in combination with a variety of drugs and investigational agents in selected tumor cell lines
The POL inhibitors (novobiocin, ART-558, and RP6685) were evaluated both individually and in combination with standard of care and investigational anticancer small molecules within a complex spheroid model of solid tumors. . Complex spheroids include a stromal component modeled by human endothelial cells (HUVEC) and fibroblasts modeled by human mesenchymal stem cells (MSCs). The concentration ranges selected for each drug and investigational agent were based upon clinically achievable concentrations if the clinical Cmax of the agent was known.
Compounds. The drugs and investigational agents: novobiocin (NSC847541), ART-558 (NSC835418), RP-6685 (NSC848927), peposertib (NSC802822), ceralasertib (NSC780249), elimusertib (NSC800525), camonsertib (NSC841442), AZD-1390 (NSC803789), olaparib (NSC753686), talazoparib (NSC767125), rucaparib (NSC756644), sotorasib (NSC818433), MRTX-1133 (NSC836407), SN-38 (NSC673596), topotecan (NSC609699), epotoside (NSC141540), doxorubicin (NSC123127), gemcitabine (NSC613327), 5-fluorouracil (NSC19893), paclitaxel (NSC125973), vemurafenib (NSC761431), MSA-2 (NSC828583), SN-011 (NSC837082), adavosertib (NSC754352), prexasertib (NSC758257), carboplatin (NSC241240) and oxaliplatin (NSC266046), were obtained from the National Cancer Institute (NCI) Developmental Therapeutics Program Chemical Repository (21). The FDA-approved anticancer drug set is available from the Developmental Therapeutics Program at https://dtp.cancer.gov/organization/dscb/obtaining/. […] The stock solutions were prepared in dimethyl sulfoxide (DMSO, Sigma-Aldrich, St. Louis, MO, cat. D2650), except for the platinum compounds which were prepared in saline (Quality Biological, Gaithersburg, MD, cat. 114-055-101), at 800-fold the tested concentration and stored at -70 degrees C prior to their use. All drugs and investigational agents were tested over a range starting from a high concentration at or near the clinical Cmax and decreasing in half-log increments. If the clinical Cmax for an agent had not been determined, the highest concentration tested was 10 microM, except for SN-38, which was tested at a high concentration of 1 microM.
Cell Culture. All cells were maintained in an incubator at 37 degrees C and 5% CO2 with 95% humidity. The PDC lines were cultured according to standard operating procedures established by the NCI PDMR (https://pdmr.cancer.gov). Table 3 of the manuscript, lists the cell lines along with the number of the three cell types plated to form the mct-spheroids and media for tumor cell growth. After thawing, all PDC lines, except 997537-175-T-J1-PDC and 415267-285-R-J2-PDC, were cultured in Matrigel-coated flasks prepared with a working solution of 1X Ham's F-12 nutrient mix, without supplementation (Thermo Fisher Scientific, cat. 11765054), 100 U/mL penicillin-streptomycin (Thermo Fisher Scientific, cat. 15140122), and 2.5% Matrigel (Corning Inc., Corning, NY, cat. 354248) for the first three passages. The two PDC lines 997537-175-T-J1-PDC and 415267-285-R-J2-PDC were cultured on uncoated flasks. The 857933-349-R-J2-PDC line was cultured in 6C/Colon 1B media containing advanced DMEM/F-12 (Thermo Fisher Scientific, cat. 12634028), 10 mM HEPES (Thermo Fisher Scientific, cat. 15630080), 1X GlutaMAX supplement (Thermo Fisher Scientific, cat. 35050061), 0.1 mg/mL primocin (InvivoGen, San Diego, CA, cat. ant-pm-2), 10% defined fetal bovine serum, heat inactivated (HyClone Laboratories Inc., Logan, UT, cat. SH30070.03HI), 50% L-WRN conditioned media (ATCC, cat. CRL-3276), 1.25 mM N-Acetyl-L-cysteine (Sigma-Aldrich, cat. A9165), 10 mM nicotinamide (Sigma-Aldrich, cat. N0636), 1X B-27 supplement (Thermo Fisher Scientific, cat. 17504044), 1X N-2 supplement (Thermo Fisher Scientific, cat. […]
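Note: luminescence signal used as surrogate measure of viable cells; spheroids exposed to compounds for seven days before readout.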
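Throughout, for viability, T/C: 100% = DMSO vehicle control viability as luminescence relative to vehicle.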

CC1COCCN1c1cc(-c2ccnn2C)c2ccnc(-c3ccn[nH]3)c2n1 (stereo not drawn)
viability, T/C (compound 0.0316 µM): 81.5% and 81.3% and 92.4%
viability, T/C (compound 0.1 µM): 50% and 45.1% and 76.5%
viability, T/C (compound 0.316 µM): 27.3% and 28.6% and 65.2%
viability, T/C (compound 1 µM): 13.1% and 16% and 35.1%
viability, T/C (compound 3.16 µM): 10.7% and 9.53% and 5.15%
viability, T/C (compound 10 µM): 10.5% and 9.86% and 3.76%
IC50 (curve of compound): 102 nM and 88.6 nM and 527 nM

COc1ccc([C@@H](O)c2cc(-c3ncnc4cc(N5CCOCC5)ccc34)c(F)cc2Cl)nn1 + Cc1cccc(N(C)C(=O)C2C(O)CCN2c2nc(C)cc(C(F)(F)F)c2C#N)c1
IC50 (curve of first compound, second compound 0.0316 µM): 3250 nM
IC50 (curve of first compound, second compound 0.1 µM): 2790 nM
IC50 (curve of first compound, second compound 0.316 µM): 2480 nM
IC50 (curve of first compound, second compound 1 µM): 3320 nM
IC50 (curve of first compound, second compound 3.16 µM): 2880 nM
IC50 (curve of first compound, second compound 10 µM): 2490 nM
viability, T/C (second compound 0.0316 µM, first compound 0.0316 µM): 103%
viability, T/C (second compound 0.0316 µM, first compound 0.1 µM): 95.7%
viability, T/C (second compound 0.0316 µM, first compound 0.316 µM): 94.4%
viability, T/C (second compound 0.0316 µM, first compound 1 µM): 70.4%
viability, T/C (second compound 0.0316 µM, first compound 3.16 µM): 53.5%
viability, T/C (second compound 0.0316 µM, first compound 10 µM): 10.8%
viability, T/C (second compound 0.1 µM, first compound 0.0316 µM): 101%
viability, T/C (second compound 0.1 µM, first compound 0.1 µM): 107%
viability, T/C (second compound 0.1 µM, first compound 0.316 µM): 106%
viability, T/C (second compound 0.1 µM, first compound 1 µM): 80.7%
viability, T/C (second compound 0.1 µM, first compound 3.16 µM): 47.3%
viability, T/C (second compound 0.1 µM, first compound 10 µM): 9.36%
viability, T/C (second compound 0.316 µM, first compound 0.0316 µM): 105%
viability, T/C (second compound 0.316 µM, first compound 0.1 µM): 94.5%
viability, T/C (second compound 0.316 µM, first compound 0.316 µM): 102%
viability, T/C (second compound 0.316 µM, first compound 1 µM): 90.1%
viability, T/C (second compound 0.316 µM, first compound 3.16 µM): 39.2%
viability, T/C (second compound 0.316 µM, first compound 10 µM): 14.3%
viability, T/C (second compound 1 µM, first compound 0.0316 µM): 105%
viability, T/C (second compound 1 µM, first compound 0.1 µM): 95.9%
viability, T/C (second compound 1 µM, first compound 0.316 µM): 98.7%
viability, T/C (second compound 1 µM, first compound 1 µM): 82.3%
viability, T/C (second compound 1 µM, first compound 3.16 µM): 51.9%
viability, T/C (second compound 1 µM, first compound 10 µM): 9.82%
viability, T/C (second compound 3.16 µM, first compound 0.0316 µM): 99.5%
viability, T/C (second compound 3.16 µM, first compound 0.1 µM): 98.8%
viability, T/C (second compound 3.16 µM, first compound 0.316 µM): 97.2%
viability, T/C (second compound 3.16 µM, first compound 1 µM): 79.5%
viability, T/C (second compound 3.16 µM, first compound 3.16 µM): 47.7%
viability, T/C (second compound 3.16 µM, first compound 10 µM): 8.69%
viability, T/C (second compound 10 µM, first compound 0.0316 µM): 122%
viability, T/C (second compound 10 µM, first compound 0.1 µM): 86.7%
viability, T/C (second compound 10 µM, first compound 0.316 µM): 89.5%
viability, T/C (second compound 10 µM, first compound 1 µM): 64.3%
viability, T/C (second compound 10 µM, first compound 3.16 µM): 57.1%
viability, T/C (second compound 10 µM, first compound 10 µM): 8.38%

CCc1c2c(nc3ccc(O)cc13)-c1cc3c(c(=O)n1C2)COC(=O)[C@]3(O)CC
viability, T/C (compound 0.00316 µM): 14.7% and 8.09% and 15.9%
viability, T/C (compound 0.01 µM): 15.4% and 8.23% and 16.2%
viability, T/C (compound 0.0316 µM): 15.1% and 8.92% and 18.4%
viability, T/C (compound 0.1 µM): 18% and 6.71% and 16.7%
viability, T/C (compound 0.316 µM): 14.7% and 5.07% and 16%
viability, T/C (compound 1 µM): 4.2% and 2.5% and 5.57%
IC50 (curve of compound): < 3.16 nM

CCCS(=O)(=O)Nc1ccc(F)c(C(=O)c2c[nH]c3ncc(-c4ccc(Cl)cc4)cc23)c1F
viability, T/C (compound 0.0316 µM): 94.3% and 101% and 99.8%
viability, T/C (compound 0.1 µM): 96.1% and 110% and 85.9%
viability, T/C (compound 0.316 µM): 100% and 104% and 94.3%
viability, T/C (compound 1 µM): 92.9% and 106% and 89.7%
viability, T/C (compound 3.16 µM): 97.2% and 113% and 91%
viability, T/C (compound 10 µM): 79.2% and 84.4% and 48.5%
IC50 (curve of compound): > 10000 nM and 9610 nM
